# Data published in patent US7842324B2 (Senomyx, Inc., priority 2005, dated 2010).
# Key:
# [1] = test system: tasters; test: Reduced sugar ice cream sensory evaluation; format: in vivo, human; conditions: for Average Sweet Intensity Score: scale 1 to 10
# Experimental: A water soluble liquid sweetener concentrate composition comprising 0.1% by weight of Example 23 in USP grade propylene glycol can be prepared by mixing the amide compound and propylene glycol by stirring the composition while warming to about 50° C., then milling the resulting liquid in a Silverson mill with a square basket cage at 300-600 rpms, to further ensure homogeneity of the liquid. An alternative method actually used was that the amide compound was dissolved in ethanol (1:1000 dilution), sonicated for 20 minutes, and 19.80 grams of the diluted sweet enhancer sample was added to the vanilla flavoring (which contains 20-30% ethyl alcohol) and sonicate that sample for an additional 20 minutes.
# Heavy cream and whole milk were placed into a 5000 mL stainless steel cylinder and mixed using a LIGHTNIN™ Mixer at 500 to 650 rpms using a 2.5 inch (6.35 cm) impeller with three straight blades. A vortex was created by positioning the impeller blades at a 30 to 45° angle. The sweet enhancer was added using the vanilla/ethanol mixture. Some milk/cream was added back to the weigh dish of the sweet enhancer to ensure all the amide compound was removed from the weigh dish. The sugar/stabilizer mixture was slowly added to the vortex of the mixing milk/cream solution. The resulting solution was mixed for 10 minutes until the sugar dissolved and the stabilizer rehydrated. Care was taken to ensured that no lumps or undissolved stabilizer existed in the solution. The remaining sugar was added to the vortex and mixing was continued for an additional 10 minutes. Egg yolks and vanilla flavor were next added and the mixing continued for 5 more minutes.
# Ice cream samples were evaluated by tasters, using a rank rating design. Tasters used an anchored scale from 1 to 10 (1 being no sweetness, 10 being intense sweetness). Three digit coded samples were randomized and the following samples were given to tasters: full sugar version, ⅔ sugared version, ⅔ sugared+3.3 ppm or 6.6 ppm of compound 23. Tasters were instructed to hold the ice cream samples in their mouth for at least 5 seconds, expectorate the sample, and evaluate/rank the “peak” of sweetness intensity.
# [2] = test system: Human Panelists; test: Line Scale sensory testing human taste test (Table C); format: in vivo; conditions: 5 μM compound + 6% fructose/glucose, low sodium buffer pH 7.1
# From the text: Purpose: To create a dose-response curve for perceived sweetness intensity of fructose-glucose concentrations. Test samples containing experimental compound are compared to this dose-response curve to determine equivalent sweetness intensity. This type of study requires a number of evaluations in order to obtain statistically significant data, so the test may be repeated with the same or additional panelists.
# Overview: A group of eight or more panelists taste solutions including fructose-glucose at various concentrations, as well as the experimental compound, both with and without added fructose-glucose. Panelists rate sweetness intensity of all samples on an unstructured horizontal line scale, anchored from 0 to 10, where 0 equals no sweetness and 10 equals intense sweetness. Scores for sweetness intensity are averaged across panelists. Then using the average scores and/or equation of the line for the fructose-glucose dose-response curve, equivalent sweetness fructose-glucose concentrations are determined for the samples containing experimental compound.
# Procedure: Eight or more subjects are used for the Line Scale tests. Subjects have been previously familiarized with the key attribute taste and are trained to use the 0 to 10 unstructured line scale. Subjects refrain from eating or drinking (except water) for at least 1 hour prior to the test. Subjects eat a cracker and rinse with water several times to clean the mouth.
# Fructose-glucose solutions are provided at a wide range of concentrations, such as 0%, 2%, 4%, 6%, 8%, and 10% fructose-glucose, in order to create the dose-response curve. Samples containing experimental compound are prepared both alone and in a 6% fructose-glucose solution. All samples are made up in low sodium buffer pH 7.1. In order to aid dispersion, solutions can also be made up in 0.1% ethanol.
# The solutions are dispensed in 20 ml volumes into 1 oz. sample cups and served to the subjects at room temperature. All samples are presented in randomized counterbalanced order to reduce response bias. Further, two sessions of testing may be used to check panel precision.
# Subjects taste each sample individually and rate sweetness intensity on the line scale prior to tasting the next sample. All samples are expectorated. Subjects may retaste the samples but can only use the volume of sample given. Subjects must rinse with water between samples. Eating an unsalted cracker between sample pairs may be required depending on the samples tasted.
# The scores for each sample are averaged across subjects and standard error is calculated. The dose-response curve is plotted graphically, and this may be used to ensure the panel is rating accurately; i.e. increasing the concentration of fructose-glucose should correspond to increased average scores for sweetness. A 2-way ANOVA (factors being samples and panelists) and multiple comparison tests (such as Tukey's Honestly Significant Difference test) can be used to determine differences among samples and/or panelists. A 3-way ANOVA, with sessions as the third factor, can be used to determine if there is any difference in the ratings between sessions.
# [3] = test system: tasters; test: Reduced sugar dry beverage mix (strawberry beverage) sensory evaluation; format: in vivo, human; conditions: ⅔ sugared strawberry beverage + 1.3 ppm, scale 1 to 10
# Experimental: 1000.00 g of the finished beverage was formulated. Compound 23 was diluted with maltodextrin (1:100) to form a sweetener concentrate composition prior to addition to the other dry beverage base ingredients. 50 g of the maltodextrin was placed on the bottom of a clean and dried mortar and 1.0000 g of compound 23 was added and slowly ground into the maltodextrin with the pestle. The remaining maltodextrin was added to a planetary mixer with a wire whip attachment (KITCHEN AIDE™ Mixer), and the contents of the mortar were placed into the mixer and the mixer was turned on to a slow speed (setting 3) and allowed to mix for an additional 10 minutes.
# The contents of the glass container were re-mixed in the glass container before taking out aliquots of the dry diluted sweet enhancer. Using the KITCHEN AIDE™ Mixer with the wire whip attachment, the granulated ingredients of the beverage base (sugar, acid) were mixed slowly at speed 2 using the wire whip attachment for 3 minutes and 0.13 grams of the 1:100 diluted solid sweetener concentrate composition was added and mixed at speed 3 for 5 minutes. Calcium silicate was added and allowed to mix for another 5 minutes until the silicate was evenly dispersed. The dry flavor and dry color were added last and allowed to mix for another 10 minutes. A plastic spatula was used to scrape the inside of the mixing bowl to ensure complete recovery of the dry beverage base composition.
# The water was placed in a stainless steel 3 L cylinder and a LIGHTNIN™ Mixer was set at 500 to 650 rpms using a 2.5 inch (6.35 cm) impeller with three straight blades. This was used to create a vortex in the water. The impeller blades were positioned at a 30 to 45° angle. The dry beverage base (53.525 grams) was slowly added to the vortex of the water and was mixed for an additional 5 minutes until all the sugar and acids had dissolved.
# Samples of control sugared strawberry beverages containing sugar at the full level indicated above (50, 66.67, 80, 90, and 100% of full sugar), and the strawberry beverage comprising ⅔ sugar+1.3 ppm compound 23 were given to tasters in randomized order. Tasters used an anchored scale from 1 to 10 (1 being no sweetness, 10 being intense sweetness). Tasters were instructed to hold the beverage in their mouth for at least 5 seconds, expectorate the sample, and evaluate/rank the “peak” of sweetness intensity of their various samples. They were allowed to re-taste and re-position their samples on the physical line scale. Once satisfied with their rankings, they wrote down their code and corresponding rank score.
compound,measurement,setting,value
"CC(C)CNC(=O)C(C)(C)c1ccc(-c2cncc(C#N)c2)cc1 [Compound 23, 2-(4-(5-cyanopyridin-3-yl)phenyl)-N-isobutyl-2-methylpropanamide]",sweetness compared with ⅔ sugared control ice cream,[1]; 3.3 ppm and 6.6 ppm in ⅔ sugared ice cream,scored higher in sweetness than the ⅔ sugared control sample
same,sweetness compared with fully sugared ice cream,[1]; 6.6 ppm in ⅔ sugared ice cream,nearly as sweet as the fully sugared ice cream
same,Qualitative feedback of tasters,[1]; ice cream samples containing compound 23,“slight lingering” and “slight delay of sweetness”
same,Average Sweet Intensity Score,[1]; ⅔ sugared ice cream + 3.3 ppm,5.143
same,Average Sweet Intensity Score,[1]; ⅔ sugared ice cream + 6.6 ppm,7.357
same,Perceived Equivalent Sweet Solution,[2],Equal to 10% fructose/ % fructose/glucose
same,Sweet Score from Individual Tastors #1,[3],8
same,Sweet Score from Individual Tastors #2,[3],7
same,Sweet Score from Individual Tastors #3,[3],7
same,Sweet Score from Individual Tastors #4,[3],8
same,Sweet Score from Individual Tastors #5,[3],7.5
same,Sweet Score from Individual Tastors #6,[3],7
same,Sweet Score from Individual Tastors #7,[3],8
same,Sweet Score from Individual Tastors #8,[3],8
same,Average Scores,[3]; mean of eight tasters,7.56
